# Measurements: patent US20090170067A1, “Simian tropic, recombinant human immunodeficiency-1 viruses” (The Rockefeller University, priority 2006, published 2009)
# Experiments:
# [1] = molecular target: HIV-1 capsid (CA) protein of the HIV-1NL4-3-based viruses (HIV/KB9/GFP, HIV(SVif)/KB9/GFP) (HIV-1 (NL4-3)) (UniProt P12493); assay: cell-based or functional assay
# [2] = molecular target: rhesus macaque APOBEC3G (rhesus macaque); assay: cell-based or functional assay
# [3] = system: HIV-1NL4-3; assay: Protease inhibitor virus inhibition assay (infected HUT-R5 cells, readout on TZM-bl); assay type: cell-based; settings: infected HuT-CCR5 cells, FIG. 5C
# [4] = system: SIVMAC239; assay: as above; assay type: cell-based, simian immunodeficiency virus; settings: infected HuT-CCR5 cells, FIG. 5C
# [5] = system: stHIV/KB9; assay: as above; assay type: cell-based, simian-tropic HIV-1; settings: infected HuT-CCR5 cells, FIG. 5C
# [6] = system: HIV-1NL4-3; assay: Sensitivity to RT inhibitors, TZM luciferase infection assay; assay type: cell-based; settings: TZM-bl indicator cells, FIG. 5A,B
# [7] = system: SIVMAC239; assay: as above; assay type: cell-based, simian immunodeficiency virus; settings: TZM-bl indicator cells, FIG. 5A,B
# [8] = system: stHIV/KB9; assay: as above; assay type: cell-based, simian-tropic HIV-1; settings: TZM-bl indicator cells, FIG. 5A,B
# rhesus macaque APOBEC3G (rhesus macaque), sequence (Q7YR24 whole entry): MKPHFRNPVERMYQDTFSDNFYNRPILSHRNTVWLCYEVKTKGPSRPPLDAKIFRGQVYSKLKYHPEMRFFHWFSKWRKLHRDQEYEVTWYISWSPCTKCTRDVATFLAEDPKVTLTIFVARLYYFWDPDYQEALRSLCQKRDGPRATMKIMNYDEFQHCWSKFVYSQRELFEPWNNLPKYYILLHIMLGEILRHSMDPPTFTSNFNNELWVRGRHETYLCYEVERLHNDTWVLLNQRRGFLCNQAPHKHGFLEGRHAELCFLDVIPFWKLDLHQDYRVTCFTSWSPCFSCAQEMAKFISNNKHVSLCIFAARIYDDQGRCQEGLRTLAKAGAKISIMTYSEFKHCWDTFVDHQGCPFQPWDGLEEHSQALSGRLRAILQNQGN
compound,measurement,setting,value
rhesus macaque TRIM5α (from UniProt Q0PF16 1-497),single-cycle infectivity (GFP-positive cells) in CEMx174 cells expressing rhTRIM5α against unmodified CEMx174 cells,[1],30 fold
same,single-cycle infectivity (GFP-positive cells) in rhesus macaque 221 cells against unmodified CEMx174 cells,[1],70 fold
"SIVMAC Vif protein (SIVMAC239) as expressed by HIV(SVif)/KB9/GFP and B3HIV(SCA,SVif)/KB9/GFP",fold decrease in single-cycle infectivity on CEMx174 cells of virus made in 293T cells with or without rhAPOBEC3G,[2],< 2 fold
"HIV-1 Vif protein of the HIV-1NL4-3-based viruses (HIV/KB9/GFP, B3HIV(SCA)/KB9/GFP) (from UniProt P12504 1-192)",single-cycle infectivity on CEMx174 cells of virus made in 293T cells with or without rhAPOBEC3G,[2],30 fold
CC(C)CN(C[C@@H](O)[C@H](Cc1ccccc1)NC(=O)O[C@H]1CCOC1)S(=O)(=O)c1ccc(N)cc1 [amprenavir],"inhibition of infectious virus generation, result in words",[3],effective inhibitors
same,"inhibition of infectious virus generation, result in words",[4],ineffective or poorly inhibitory
same,"inhibition of infectious virus generation, result in words",[5],potently inhibited
Cc1ccnc2c1NC(=O)c1cccnc1N2C1CC1 [nevirapine],"inhibition of infection (luciferase, percentage of uninhibited level), result in words",[6],effective inhibitors
same,"inhibition of infection (luciferase, percentage of uninhibited level), result in words",[7],ineffective or poorly inhibitory
same,"inhibition of infection (luciferase, percentage of uninhibited level), result in words",[8],potently inhibited
Cc1cn([C@H]2C[C@H](N=[N+]=[N-])[C@@H](CO)O2)c(=O)[nH]c1=O [AZT],"inhibition of infection (luciferase, percentage of uninhibited level), result in words",[6],equally sensitive
same,"inhibition of infection (luciferase, percentage of uninhibited level), result in words",[7],equally sensitive
same,"inhibition of infection (luciferase, percentage of uninhibited level), result in words",[8],equally sensitive
